Reference: patent publication US10927136B2, “Phosphorus prodrugs of pyrazolo-substituted pyrimidine sGC stimulators” (Cyclerion Therapeutics, Inc., priority 2016, dated 2021)

Molecular target: T1, HEK (Homo sapiens, UniProt Q02108+Q02153)
T1 construct: sGC enzyme activity values in HEK cells; endogenous in cells; host or cells: HEK cells
T1 sequence (Q02153 1-619): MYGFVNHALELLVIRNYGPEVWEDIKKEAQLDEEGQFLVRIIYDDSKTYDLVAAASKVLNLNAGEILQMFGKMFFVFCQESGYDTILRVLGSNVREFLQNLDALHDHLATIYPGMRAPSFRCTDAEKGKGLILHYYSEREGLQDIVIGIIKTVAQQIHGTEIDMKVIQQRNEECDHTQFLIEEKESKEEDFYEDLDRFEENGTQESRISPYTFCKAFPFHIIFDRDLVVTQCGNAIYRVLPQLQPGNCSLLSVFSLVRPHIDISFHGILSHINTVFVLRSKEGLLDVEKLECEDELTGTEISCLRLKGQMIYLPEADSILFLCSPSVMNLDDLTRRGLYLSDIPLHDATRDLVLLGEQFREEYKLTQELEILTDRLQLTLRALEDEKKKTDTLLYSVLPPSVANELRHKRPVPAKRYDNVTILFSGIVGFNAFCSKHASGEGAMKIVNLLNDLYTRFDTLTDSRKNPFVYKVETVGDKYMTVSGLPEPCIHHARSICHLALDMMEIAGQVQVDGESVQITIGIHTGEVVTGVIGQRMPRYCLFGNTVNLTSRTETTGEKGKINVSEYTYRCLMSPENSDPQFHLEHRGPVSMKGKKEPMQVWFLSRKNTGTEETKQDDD
T1 sequence (Q02108 1-690): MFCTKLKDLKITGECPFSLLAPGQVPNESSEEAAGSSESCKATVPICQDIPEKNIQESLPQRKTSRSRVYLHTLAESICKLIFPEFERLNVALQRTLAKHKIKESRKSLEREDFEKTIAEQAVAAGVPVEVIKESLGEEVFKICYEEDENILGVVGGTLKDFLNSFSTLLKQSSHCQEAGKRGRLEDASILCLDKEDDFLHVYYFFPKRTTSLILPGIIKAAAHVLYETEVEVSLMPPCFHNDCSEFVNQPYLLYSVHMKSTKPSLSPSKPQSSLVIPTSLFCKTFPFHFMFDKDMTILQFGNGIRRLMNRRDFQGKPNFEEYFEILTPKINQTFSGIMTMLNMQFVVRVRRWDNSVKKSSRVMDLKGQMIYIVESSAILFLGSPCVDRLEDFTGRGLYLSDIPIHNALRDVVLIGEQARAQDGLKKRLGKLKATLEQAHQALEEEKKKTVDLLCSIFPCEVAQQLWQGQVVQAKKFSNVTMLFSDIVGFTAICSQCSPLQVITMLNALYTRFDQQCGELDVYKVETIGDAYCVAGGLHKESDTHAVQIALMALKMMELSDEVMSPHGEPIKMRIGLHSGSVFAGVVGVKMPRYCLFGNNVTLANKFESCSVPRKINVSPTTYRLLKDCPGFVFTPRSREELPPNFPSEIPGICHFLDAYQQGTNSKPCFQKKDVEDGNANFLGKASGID
Experiment: HEK EC50 quoted in rat PO PK table (assay version not stated)
Format: cell-based
Details: listed in rat PO PK table for Intermediate 3

EC50: 100 nM
Structure (SMILES): OC(CNc1nc(-c2cc(-c3ccon3)n(Cc3ccccc3F)n2)ncc1F)(C(F)(F)F)C(F)(F)F [Intermediate 3]
